# The supplement of paper PMC10307832
# How the values were obtained:
# Assay in all cases: relative viability (nuclei count vs DMSO), 5 days (fraction); higher = more cells survive
# NCI-H1437 = test system: NCI-H1437
# In short: (§1)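 Lung cancer cell lines, seeded in 1536-well plates, were treated the following day by pin tool with a single drug or with five library-drug doses (not always all listed) in √10 steps on top of a fixed anchor-drug dose. Cells were fixed and nuclei stained in one step after 5 days, and nuclei were counted. Relative viability is the nuclei count for treated wells divided by that for vehicle wells, reported as medians of duplicate plates.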
# NCI-H1355 = test system: NCI-H1355
# In short: as §1
# NCI-H2085 = test system: NCI-H2085
# In short: as §1
# NCI-H838 = test system: NCI-H838
# In short: as §1
# NCI-H1395 = test system: NCI-H1395
# In short: as §1
# NCI-H2342 = test system: NCI-H2342
# In short: as §1
# NCI-H1755 = test system: NCI-H1755
# In short: as §1
# NCI-H1650 = test system: NCI-H1650
# In short: as §1
# HCC-366 = test system: HCC-366
# In short: as §1
# HCC-15 = test system: HCC-15
# In short: as §1
# LCLC-103H = test system: LCLC-103H
# In short: as §1
# NCI-H1734 = test system: NCI-H1734
# In short: as §1
# NCI-H1651 = test system: NCI-H1651
# In short: as §1
# NCI-H358 = test system: NCI-H358
# In short: as §1
# BEN = test system: BEN
# In short: as §1
# NCI-H441 = test system: NCI-H441
# In short: as §1
# NCI-H2023 = test system: NCI-H2023
# In short: as §1
# HCC-44 = test system: HCC-44
# In short: as §1
# CAL-12T = test system: CAL-12T
# In short: as §1
# EKVX = test system: EKVX
# In short: as §1
# NCI-H1975 = test system: NCI-H1975
# In short: as §1
# LOU-NH91 = test system: LOU-NH91
# In short: as §1
# NCI-H460 = test system: NCI-H460
# In short: as §1
structure (smiles),measurement,setting,value
Clc1ccc(Nc2nnc(Cc3ccncc3)c3ccccc23)cc1 [Vatalanib] + Cc1cc(Nc2cc(N3CCN(C)CC3)nc(Sc3ccc(NC(=O)C4CC4)cc3)n2)n[nH]1 [Tozasertib] (partner 0.1 µM),relative viability,NCI-H1437; first compound 0.04 µM,0.409
same,relative viability,NCI-H1437; first compound 0.1265 µM,0.353
same,relative viability,NCI-H1437; first compound 0.4 µM,0.41
same,relative viability,NCI-H1437; first compound 1.265 µM,0.437
same,relative viability,NCI-H1437; first compound 4 µM,0.392
same,relative viability,NCI-H1355; first compound 0.04 µM,0.585
same,relative viability,NCI-H1355; first compound 0.1265 µM,0.58
same,relative viability,NCI-H1355; first compound 0.4 µM,0.664
same,relative viability,NCI-H1355; first compound 1.265 µM,0.462
same,relative viability,NCI-H1355; first compound 4 µM,0.521
same,relative viability,NCI-H2085; first compound 0.04 µM,0.796
same,relative viability,NCI-H2085; first compound 0.1265 µM,0.831
same,relative viability,NCI-H2085; first compound 0.4 µM,0.829
same,relative viability,NCI-H2085; first compound 1.265 µM,0.744
same,relative viability,NCI-H2085; first compound 4 µM,0.637
same,relative viability,NCI-H838; first compound 0.04 µM,0.249
same,relative viability,NCI-H838; first compound 0.1265 µM,0.28
same,relative viability,NCI-H838; first compound 0.4 µM,0.302
same,relative viability,NCI-H838; first compound 1.265 µM,0.228
same,relative viability,NCI-H838; first compound 4 µM,0.295
same,relative viability,NCI-H1395; first compound 0.04 µM,0.734
same,relative viability,NCI-H1395; first compound 0.1265 µM,0.75
same,relative viability,NCI-H1395; first compound 0.4 µM,0.747
same,relative viability,NCI-H1395; first compound 1.265 µM,0.648
same,relative viability,NCI-H1395; first compound 4 µM,0.792
same,relative viability,NCI-H2342; first compound 0.04 µM,0.618
same,relative viability,NCI-H2342; first compound 0.1265 µM,0.532
same,relative viability,NCI-H2342; first compound 0.4 µM,0.492
same,relative viability,NCI-H2342; first compound 1.265 µM,0.465
same,relative viability,NCI-H2342; first compound 4 µM,0.492
same,relative viability,NCI-H1755; first compound 0.04 µM,0.587
same,relative viability,NCI-H1755; first compound 0.1265 µM,0.612
same,relative viability,NCI-H1755; first compound 0.4 µM,0.701
same,relative viability,NCI-H1755; first compound 1.265 µM,0.58
same,relative viability,NCI-H1755; first compound 4 µM,0.628
same,relative viability,NCI-H1650; first compound 0.04 µM,0.398
same,relative viability,NCI-H1650; first compound 0.1265 µM,0.246
same,relative viability,NCI-H1650; first compound 0.4 µM,0.438
same,relative viability,NCI-H1650; first compound 1.265 µM,0.37
same,relative viability,NCI-H1650; first compound 4 µM,0.425
same,relative viability,HCC-366; first compound 0.04 µM,0.119
same,relative viability,HCC-366; first compound 0.1265 µM,0.0909
same,relative viability,HCC-366; first compound 0.4 µM,0.161
same,relative viability,HCC-366; first compound 1.265 µM,0.103
same,relative viability,HCC-366; first compound 4 µM,0.095
same,relative viability,HCC-15; first compound 0.04 µM,0.419
same,relative viability,HCC-15; first compound 0.1265 µM,0.465
same,relative viability,HCC-15; first compound 0.4 µM,0.478
same,relative viability,HCC-15; first compound 1.265 µM,0.446
same,relative viability,HCC-15; first compound 4 µM,0.426
same,relative viability,LCLC-103H; first compound 0.04 µM,0.482
same,relative viability,LCLC-103H; first compound 0.1265 µM,0.518
same,relative viability,LCLC-103H; first compound 0.4 µM,0.532
same,relative viability,LCLC-103H; first compound 1.265 µM,0.503
same,relative viability,LCLC-103H; first compound 4 µM,0.502
same,relative viability,NCI-H1734; first compound 0.04 µM,0.31
same,relative viability,NCI-H1734; first compound 0.1265 µM,0.232
same,relative viability,NCI-H1734; first compound 0.4 µM,0.278
same,relative viability,NCI-H1734; first compound 1.265 µM,0.276
same,relative viability,NCI-H1734; first compound 4 µM,0.249
same,relative viability,NCI-H1651; first compound 0.04 µM,0.845
same,relative viability,NCI-H1651; first compound 0.1265 µM,0.668
same,relative viability,NCI-H1651; first compound 0.4 µM,0.701
same,relative viability,NCI-H1651; first compound 1.265 µM,0.667
same,relative viability,NCI-H1651; first compound 4 µM,0.629
same,relative viability,NCI-H358; first compound 0.04 µM,0.0969
same,relative viability,NCI-H358; first compound 0.1265 µM,0.0902
same,relative viability,NCI-H358; first compound 0.4 µM,0.08
same,relative viability,NCI-H358; first compound 1.265 µM,0.108
same,relative viability,NCI-H358; first compound 4 µM,0.0997
same,relative viability,BEN; first compound 0.04 µM,0.464
same,relative viability,BEN; first compound 0.1265 µM,0.535
same,relative viability,BEN; first compound 0.4 µM,0.557
same,relative viability,BEN; first compound 1.265 µM,0.439
same,relative viability,BEN; first compound 4 µM,0.412
same,relative viability,NCI-H441; first compound 0.04 µM,0.847
same,relative viability,NCI-H441; first compound 0.1265 µM,0.746
same,relative viability,NCI-H441; first compound 0.4 µM,0.643
same,relative viability,NCI-H441; first compound 1.265 µM,0.659
same,relative viability,NCI-H441; first compound 4 µM,0.598
same,relative viability,NCI-H2023; first compound 0.04 µM,0.374
same,relative viability,NCI-H2023; first compound 0.1265 µM,0.377
same,relative viability,NCI-H2023; first compound 0.4 µM,0.424
same,relative viability,NCI-H2023; first compound 1.265 µM,0.287
same,relative viability,NCI-H2023; first compound 4 µM,0.241
same,relative viability,HCC-44; first compound 0.04 µM,1.1
same,relative viability,HCC-44; first compound 0.1265 µM,0.887
same,relative viability,HCC-44; first compound 0.4 µM,0.91
same,relative viability,HCC-44; first compound 1.265 µM,0.907
same,relative viability,HCC-44; first compound 4 µM,0.815
same,relative viability,CAL-12T; first compound 0.04 µM,0.307
same,relative viability,CAL-12T; first compound 0.1265 µM,0.297
same,relative viability,CAL-12T; first compound 0.4 µM,0.304
same,relative viability,CAL-12T; first compound 1.265 µM,0.266
same,relative viability,CAL-12T; first compound 4 µM,0.277
same,relative viability,EKVX; first compound 0.04 µM,0.392
same,relative viability,EKVX; first compound 0.1265 µM,0.363
same,relative viability,EKVX; first compound 0.4 µM,0.427
same,relative viability,EKVX; first compound 4 µM,0.343
same,relative viability,NCI-H1975; first compound 0.04 µM,0.835
same,relative viability,NCI-H1975; first compound 0.1265 µM,0.687
same,relative viability,NCI-H1975; first compound 0.4 µM,0.726
same,relative viability,NCI-H1975; first compound 1.265 µM,0.535
same,relative viability,NCI-H1975; first compound 4 µM,0.424
same,relative viability,LOU-NH91; first compound 0.04 µM,0.768
same,relative viability,LOU-NH91; first compound 0.1265 µM,0.634
same,relative viability,LOU-NH91; first compound 1.265 µM,0.652
same,relative viability,LOU-NH91; first compound 4 µM,0.621
same,relative viability,NCI-H460; first compound 0.04 µM,0.656
same,relative viability,NCI-H460; first compound 0.1265 µM,0.299
same,relative viability,NCI-H460; first compound 1.265 µM,0.296
same,relative viability,NCI-H460; first compound 4 µM,0.397
